Laboratory results as given in ChEMBL document CHEMBL3616448, “N-Hydroxyimides and hydroxypyrimidinones as inhibitors of the DNA repair complex ERCC1-XPF” (Bioorg Med Chem Lett, 2015).
Active and inactive are the calls of the source. No cut-off for these calls is given here.

What was measured:
Deoxyribonuclease-1 = biological target: T1, Deoxyribonuclease-1 (Homo sapiens, UniProt P24855); assay: Inhibition of DNAse1 (unknown origin)
T1 sequence (P24855 whole entry): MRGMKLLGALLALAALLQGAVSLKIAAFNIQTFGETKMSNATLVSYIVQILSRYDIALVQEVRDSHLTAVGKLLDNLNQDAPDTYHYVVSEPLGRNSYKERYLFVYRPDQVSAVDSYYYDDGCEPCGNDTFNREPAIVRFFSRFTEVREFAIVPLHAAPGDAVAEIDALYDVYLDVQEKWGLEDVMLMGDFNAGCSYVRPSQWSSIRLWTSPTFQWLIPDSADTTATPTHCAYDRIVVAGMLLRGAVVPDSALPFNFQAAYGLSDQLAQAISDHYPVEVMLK

Flap endonuclease 1 = Flap endonuclease 1 (Homo sapiens, UniProt P39748); assay: Inhibition of FEN1 (unknown origin)
Flap endonuclease 1, sequence (P39748 whole entry): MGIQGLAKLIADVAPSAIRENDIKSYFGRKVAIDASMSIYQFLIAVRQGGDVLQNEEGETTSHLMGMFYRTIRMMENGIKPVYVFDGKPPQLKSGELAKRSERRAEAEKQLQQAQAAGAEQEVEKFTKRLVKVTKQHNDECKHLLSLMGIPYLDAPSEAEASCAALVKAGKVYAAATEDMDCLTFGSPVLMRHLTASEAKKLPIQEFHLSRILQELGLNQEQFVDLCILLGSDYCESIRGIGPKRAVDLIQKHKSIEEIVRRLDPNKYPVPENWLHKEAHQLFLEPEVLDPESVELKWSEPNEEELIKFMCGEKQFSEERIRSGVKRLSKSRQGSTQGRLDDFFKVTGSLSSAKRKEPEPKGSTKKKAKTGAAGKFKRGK

[1] = biological target: T2, DNA excision repair protein ERCC-1/DNA repair endonuclease XPF (Homo sapiens, UniProt P07992+Q92889); assay: Inhibition of ERCC1-XPF (unknown origin) by high-throughput fluorescence based in-vitro endonuclease assay; assay type: protein-complex assay
T2 sequence (P07992 whole entry): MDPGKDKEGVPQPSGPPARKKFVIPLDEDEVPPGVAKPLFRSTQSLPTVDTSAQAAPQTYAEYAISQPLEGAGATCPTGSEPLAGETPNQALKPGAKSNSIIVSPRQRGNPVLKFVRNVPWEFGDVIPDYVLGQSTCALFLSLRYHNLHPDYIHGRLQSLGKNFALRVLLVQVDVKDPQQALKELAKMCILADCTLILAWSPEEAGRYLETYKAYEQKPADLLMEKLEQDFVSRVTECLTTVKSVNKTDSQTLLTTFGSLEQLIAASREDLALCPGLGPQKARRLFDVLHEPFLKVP
T2 sequence (Q92889 whole entry): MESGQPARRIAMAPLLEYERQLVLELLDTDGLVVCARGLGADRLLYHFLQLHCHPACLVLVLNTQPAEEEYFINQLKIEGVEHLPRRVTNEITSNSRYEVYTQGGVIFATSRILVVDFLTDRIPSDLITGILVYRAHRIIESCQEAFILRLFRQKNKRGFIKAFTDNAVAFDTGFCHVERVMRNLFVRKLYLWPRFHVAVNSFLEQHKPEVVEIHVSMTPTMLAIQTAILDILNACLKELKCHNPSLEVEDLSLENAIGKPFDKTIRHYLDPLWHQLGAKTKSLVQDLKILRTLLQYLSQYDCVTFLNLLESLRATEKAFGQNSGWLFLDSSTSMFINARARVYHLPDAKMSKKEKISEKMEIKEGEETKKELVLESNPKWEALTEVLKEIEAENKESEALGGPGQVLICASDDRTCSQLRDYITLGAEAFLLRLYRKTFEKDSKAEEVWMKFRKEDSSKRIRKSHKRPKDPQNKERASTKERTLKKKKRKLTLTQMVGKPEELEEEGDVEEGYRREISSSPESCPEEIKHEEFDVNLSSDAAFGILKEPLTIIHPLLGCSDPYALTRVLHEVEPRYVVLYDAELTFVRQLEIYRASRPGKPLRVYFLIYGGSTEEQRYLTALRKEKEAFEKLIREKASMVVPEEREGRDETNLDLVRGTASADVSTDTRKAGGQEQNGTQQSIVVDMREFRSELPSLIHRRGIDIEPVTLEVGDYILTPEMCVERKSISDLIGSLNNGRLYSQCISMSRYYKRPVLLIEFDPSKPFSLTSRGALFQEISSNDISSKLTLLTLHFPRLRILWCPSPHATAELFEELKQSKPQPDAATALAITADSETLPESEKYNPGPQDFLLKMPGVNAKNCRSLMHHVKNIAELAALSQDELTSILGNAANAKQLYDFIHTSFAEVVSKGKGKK

[2] = Half life in human liver microsomes; assay type: ADME
[3] = Half life in mouse liver microsomes; assay type: ADME
HepG2 = assay: Cytotoxicity against human HepG2 cells; assay type: cell-based
[4] = Apparent permeability by PAMPA method; assay type: physicochemical
[5] = Lipophilicity, log D of the compound; assay type: physicochemical; details: octanol/water
[6] = biological target: T3, DNA excision repair protein ERCC-1/DNA repair endonuclease XPF (Homo sapiens) (UniProt P07992+Q92889); assay: Inhibition of ERCC1-XPF in human A375 cells assessed as reduction in direct nucleotide excision repair of UV-damaged pEGFP plasmid up to 10 uM incubated for 24 hrs by recombinant GFP reporter assay; assay type: cell-based; details: A-375
[7] = biological target: T2, DNA excision repair protein ERCC-1/DNA repair endonuclease XPF; assay: Binding affinity to ERCC1-XPF (unknown origin) by SPR assay; assay type: protein-complex assay
[8] = biological target: T3, DNA excision repair protein ERCC-1/DNA repair endonuclease XPF (Homo sapiens); assay: Binding affinity to ERCC1-XPF (unknown origin) assessed as melting temperature by thermal shift assay; assay type: protein-complex assay
[9] = biological target: T3, DNA excision repair protein ERCC-1/DNA repair endonuclease XPF (Homo sapiens); assay: Inhibition of ERCC1-XPF in human A375 cells assessed as potentiation of cisplatin-induced cytotoxicity at 0.1 to 3 uM incubated for 5 days; assay type: cell-based; details: A-375
[10] = biological target: T3, DNA excision repair protein ERCC-1/DNA repair endonuclease XPF (Homo sapiens); assay: Inhibition of ERCC1-XPF in human A375 cells assessed as induction of delay in DNA repair by measuring cumulative frequency of cells up to 10 uM pre-incubated for 1 hr before cisplatin exposure for 1 hr by immunohistochemistry based gammaH2AX foci assay; assay type: cell-based; details: A-375
A-375 = assay: Cytotoxicity against human A375 cells assessed as reduction in cell number at 0.1 to 3 uM incubated for 5 days; assay type: cell-based; details: a-375, 120 h

IC50 (Deoxyribonuclease-1) | IC50 (Flap endonuclease 1) | IC50 [1] | SMILES | other results
> 100 µM | 10.4 µM | 2.9 µM | O=C(O)c1nc(-c2cccs2)nc(O)c1O | 
> 100 µM | 4.2 µM | 2.7 µM | CCCNC(=O)c1nc(-c2cccs2)[nH]c(=O)c1O | 
> 100 µM | 2.1 µM | 4.2 µM | O=C(NCc1ccc(F)cc1)c1nc(-c2cccs2)nc(O)c1O | 
 | > 100 µM | 6.9 µM | CC(C)CCNC(=O)c1nc(C2CCN(C)CC2)[nH]c(=O)c1O | 
> 100 µM | 8.6 µM | 0.7 µM | O=C(Nc1cccnc1)c1nc(-c2cccs2)[nH]c(=O)c1O | 
> 100 µM | 0.68 µM | 80.4 µM | O=c1c2ccsc2n(Cc2ccccc2)c(=O)n1O | 
> 100 µM | 0.009 µM | 3.9 µM | O=c1[nH]c2sccc2c(=O)n1O | 
 | 13.7 µM | 4.6 µM | O=C(c1nc(-c2cccs2)[nH]c(=O)c1O)N1CCCC1 | 
 | 38.1 µM | 0.8 µM | CC(C)CCNC(=O)c1nc(-c2ccc(CN3CCOCC3)cc2)[nH]c(=O)c1O | 
> 100 µM | 23.3 µM | 1 µM | NC(=O)c1nc(-c2cccs2)nc(O)c1O | half-life [2]: 2.32 h; half-life [3]: 2.5 h; Activity (HepG2): > 10 µM; Papp [4]: 0.7 ×10⁻⁶ cm/s; logD [5]: -0.4
 | > 100 µM | 25.3 µM | CC(C)CCNC(=O)c1nc(C2CCCN(C)C2)[nH]c(=O)c1O (configuration not stated) | 
 | 10.5 µM | 0.8 µM | O=C(Nc1ccc(F)cc1)c1nc(-c2cccs2)[nH]c(=O)c1O | 
> 100 µM | 0.003 µM | 1.8 µM | O=c1[nH]c2c(-c3ccccc3)csc2c(=O)n1O | 
> 100 µM | 16.4 µM | 3.9 µM | O=C(O)c1nc(-c2ccccc2)nc(O)c1O | 
58.9 µM | 4.1 µM | 1 µM | O=C(NCCN1CCOCC1)c1nc(-c2cccs2)[nH]c(=O)c1O | 
 | > 100 µM | 8.4 µM | CC(C)CCNC(=O)c1nc(C2CCCCN2C)[nH]c(=O)c1O (configuration not stated) | 
 | > 100 µM | 6.3 µM | CC(C)CCNC(=O)c1nc(C2CCCCN2)[nH]c(=O)c1O (configuration not stated) | 
> 100 µM | 53.4 µM | 16.4 µM | COC(=O)c1nc(-c2ccccc2)[nH]c(=O)c1O | 
 | 71.3 µM | 1.7 µM | CC(C)CCNC(=O)c1nc(-c2ccc(CN(C)C)cc2)[nH]c(=O)c1O | 

IC50 (Deoxyribonuclease-1) | IC50 (Flap endonuclease 1) | IC50 [1] | SMILES | other results
> 100 µM | 1.3 µM | 0.6 µM | CCC(C)NC(=O)c1nc(-c2cccs2)[nH]c(=O)c1O (configuration not stated) | half-life [2]: > 6.67 h; half-life [3]: > 6.67 h; Activity (HepG2): > 10 µM; Papp [4]: 9.7 ×10⁻⁶ cm/s; logD [5]: 2.1
> 100 µM | 2.1 µM | 96.2 µM | Cn1c(=O)n(O)c(=O)c2ccccc21 | 
> 100 µM | 10.1 µM | 27.3 µM | COC(=O)c1nc(-c2cccs2)nc(O)c1O | 
62.6 µM | 5 µM | 0.8 µM | CC(=O)NCCNC(=O)c1nc(-c2cccs2)[nH]c(=O)c1O | 
87 µM | 2 µM | 6.6 µM | CC(=O)Nc1ccc2[nH]c(=O)n(O)c(=O)c2c1 | 
> 100 µM | 88.9 µM | 48.8 µM | Cn1c(-c2cccs2)nc(C(=O)O)c(O)c1=O | 
> 100 µM | 0.3 µM | 18.1 µM | O=c1[nH]c2ccccc2c(=O)n1O | 
 | 0.7 µM | 12 µM | O=C1c2cccc3c(Cl)ccc(c23)C(=O)N1O | 
> 100 µM | 0.057 µM | 1.5 µM | Cc1ccc(-c2coc3c(=O)n(O)c(=O)[nH]c23)cc1 | 
> 100 µM | 4 µM | 0.7 µM | O=C(NCCO)c1nc(-c2cccs2)[nH]c(=O)c1O | 
 | 0.3 µM | 30 µM | O=C1c2cccc3cccc(c23)C(=O)N1O | 
30.2 µM | 0.23 µM | 3.9 µM | O=c1[nH]c2cc(Nc3ccccc3)ccc2c(=O)n1O | 
> 100 µM | 0.63 µM | 1.5 µM | O=c1cc(-c2ccccc2)[nH]c(=O)n1O | 
67.6 µM | 12 µM | 0.6 µM | CNC(=O)c1nc(-c2cccs2)[nH]c(=O)c1O | inhibition [6]: inactive; Kd [7]: 4 µM; half-life [2]: 3.02 h; half-life [3]: > 6.67 h; Activity (HepG2): > 10 µM; ΔTm [8]: 4 °C; Papp [4]: 3.1 ×10⁻⁶ cm/s; inhibition [9]: inactive; inhibition [10]: inactive; Activity (A-375): Non-toxic; logD [5]: 0.5
 | 3.5 µM | 0.5 µM | CC(C)CCNC(=O)c1nc(-c2cccs2)[nH]c(=O)c1O | 
27.9 µM | 1.1 µM | 9.1 µM | O=c1[nH]c2cc(N3CCCC3)ccc2c(=O)n1O | 
 |  | > 100 µM | COc1nc(-c2cccs2)nc(C(=O)O)c1O | 
> 100 µM | 2.1 µM | 6.4 µM | CC(=O)Nc1ccc2c(=O)n(O)c(=O)[nH]c2c1 | 
> 100 µM | 0.038 µM | 6.1 µM | CC(=O)Nc1cccc2c(=O)n(O)c(=O)[nH]c12 | 
